# Assays:
# KARPAS-299 = assay: cells; conditions: Homo sapiens, KARPAS-299, 72 h
# Description: Antiproliferative activity against NPM-ALK-positive human KARPAS-299 cells incubated for 72 hrs and measured by CCK-8 assay
# NCI-H2228 [1] = assay: cells; conditions: Homo sapiens, NCI-H2228, 72 h
# Description: Antiproliferative activity against EML4-ALK-positive human NCI-H2228 cells incubated for 72 hrs and measured by CCK-8 assay
# NCI-H3122 = assay: cells; conditions: Homo sapiens, NCI-H3122, 72 h
# Description: Antiproliferative activity against EML4-ALK-positive human NCI-H3122 cells incubated for 72 hrs and measured by CCK-8 assay
# A549 = assay: cells; conditions: Homo sapiens, A549, 72 h
# Description: Antiproliferative activity against EGFR-positive human A549 cells incubated for 72 hrs and measured by CCK-8 assay
# [2] = target: ALK tyrosine kinase receptor (Homo sapiens, UniProt Q9UM73, L1196M); assay: Inhibition of ALK L1196M mutant (unknown origin) incubated for 1 hr and measured by mobility shift assay
# [3] = target: ALK tyrosine kinase receptor (Homo sapiens, UniProt Q9UM73); assay: Inhibition of ALK (unknown origin) incubated for 1 hr and measured by mobility shift assay
# Chain of ALK tyrosine kinase receptor (Homo sapiens, UniProt Q9UM73) (Q9UM73 whole entry): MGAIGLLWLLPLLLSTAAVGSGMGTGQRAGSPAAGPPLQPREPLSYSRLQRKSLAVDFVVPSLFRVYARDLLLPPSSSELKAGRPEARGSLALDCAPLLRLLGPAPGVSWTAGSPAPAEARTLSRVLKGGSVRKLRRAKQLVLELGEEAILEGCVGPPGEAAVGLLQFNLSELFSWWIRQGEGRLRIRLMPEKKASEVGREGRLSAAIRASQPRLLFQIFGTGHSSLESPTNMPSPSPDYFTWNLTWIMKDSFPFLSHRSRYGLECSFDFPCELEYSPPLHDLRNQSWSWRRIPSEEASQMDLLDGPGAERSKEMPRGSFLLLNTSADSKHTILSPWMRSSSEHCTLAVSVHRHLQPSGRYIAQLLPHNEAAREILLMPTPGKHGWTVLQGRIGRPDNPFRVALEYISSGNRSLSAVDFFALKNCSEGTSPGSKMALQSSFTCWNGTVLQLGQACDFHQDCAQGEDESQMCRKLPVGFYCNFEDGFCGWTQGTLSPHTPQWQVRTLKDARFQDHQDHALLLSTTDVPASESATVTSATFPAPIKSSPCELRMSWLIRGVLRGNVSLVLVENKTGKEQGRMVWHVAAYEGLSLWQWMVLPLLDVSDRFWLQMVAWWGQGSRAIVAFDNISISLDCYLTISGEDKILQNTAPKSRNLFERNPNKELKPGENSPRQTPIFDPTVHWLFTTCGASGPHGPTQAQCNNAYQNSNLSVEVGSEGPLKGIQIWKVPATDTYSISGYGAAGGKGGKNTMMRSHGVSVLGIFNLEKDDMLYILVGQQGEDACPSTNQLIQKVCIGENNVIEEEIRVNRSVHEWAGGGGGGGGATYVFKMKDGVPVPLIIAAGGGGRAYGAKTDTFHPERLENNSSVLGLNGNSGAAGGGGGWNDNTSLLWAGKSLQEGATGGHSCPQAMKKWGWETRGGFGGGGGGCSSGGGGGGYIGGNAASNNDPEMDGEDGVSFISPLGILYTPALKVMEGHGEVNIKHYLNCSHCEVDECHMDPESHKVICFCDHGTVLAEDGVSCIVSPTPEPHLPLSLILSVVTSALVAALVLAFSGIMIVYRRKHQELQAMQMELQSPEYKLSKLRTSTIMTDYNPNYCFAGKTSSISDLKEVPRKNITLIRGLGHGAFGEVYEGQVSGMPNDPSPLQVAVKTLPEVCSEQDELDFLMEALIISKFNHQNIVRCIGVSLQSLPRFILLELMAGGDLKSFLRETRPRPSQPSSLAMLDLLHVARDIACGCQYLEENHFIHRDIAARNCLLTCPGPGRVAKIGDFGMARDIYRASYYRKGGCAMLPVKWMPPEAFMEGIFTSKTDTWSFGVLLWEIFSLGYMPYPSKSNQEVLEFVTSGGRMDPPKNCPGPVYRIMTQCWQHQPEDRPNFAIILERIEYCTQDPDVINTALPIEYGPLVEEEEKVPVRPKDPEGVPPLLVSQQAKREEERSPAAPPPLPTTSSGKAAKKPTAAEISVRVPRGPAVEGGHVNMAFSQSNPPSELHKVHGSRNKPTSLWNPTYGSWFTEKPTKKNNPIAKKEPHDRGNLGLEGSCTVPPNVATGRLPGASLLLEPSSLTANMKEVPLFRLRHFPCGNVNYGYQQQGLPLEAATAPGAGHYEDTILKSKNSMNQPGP
# [4] = target: ALK tyrosine kinase receptor (Homo sapiens, UniProt Q9UM73, G1202R); assay: Inhibition of ALK G1202R mutant (unknown origin) incubated for 1 hr and measured by mobility shift assay
# Chain of ALK tyrosine kinase receptor (Homo sapiens, UniProt Q9UM73, G1202R) (Q9UM73 19-1620 G1202R limits assumed): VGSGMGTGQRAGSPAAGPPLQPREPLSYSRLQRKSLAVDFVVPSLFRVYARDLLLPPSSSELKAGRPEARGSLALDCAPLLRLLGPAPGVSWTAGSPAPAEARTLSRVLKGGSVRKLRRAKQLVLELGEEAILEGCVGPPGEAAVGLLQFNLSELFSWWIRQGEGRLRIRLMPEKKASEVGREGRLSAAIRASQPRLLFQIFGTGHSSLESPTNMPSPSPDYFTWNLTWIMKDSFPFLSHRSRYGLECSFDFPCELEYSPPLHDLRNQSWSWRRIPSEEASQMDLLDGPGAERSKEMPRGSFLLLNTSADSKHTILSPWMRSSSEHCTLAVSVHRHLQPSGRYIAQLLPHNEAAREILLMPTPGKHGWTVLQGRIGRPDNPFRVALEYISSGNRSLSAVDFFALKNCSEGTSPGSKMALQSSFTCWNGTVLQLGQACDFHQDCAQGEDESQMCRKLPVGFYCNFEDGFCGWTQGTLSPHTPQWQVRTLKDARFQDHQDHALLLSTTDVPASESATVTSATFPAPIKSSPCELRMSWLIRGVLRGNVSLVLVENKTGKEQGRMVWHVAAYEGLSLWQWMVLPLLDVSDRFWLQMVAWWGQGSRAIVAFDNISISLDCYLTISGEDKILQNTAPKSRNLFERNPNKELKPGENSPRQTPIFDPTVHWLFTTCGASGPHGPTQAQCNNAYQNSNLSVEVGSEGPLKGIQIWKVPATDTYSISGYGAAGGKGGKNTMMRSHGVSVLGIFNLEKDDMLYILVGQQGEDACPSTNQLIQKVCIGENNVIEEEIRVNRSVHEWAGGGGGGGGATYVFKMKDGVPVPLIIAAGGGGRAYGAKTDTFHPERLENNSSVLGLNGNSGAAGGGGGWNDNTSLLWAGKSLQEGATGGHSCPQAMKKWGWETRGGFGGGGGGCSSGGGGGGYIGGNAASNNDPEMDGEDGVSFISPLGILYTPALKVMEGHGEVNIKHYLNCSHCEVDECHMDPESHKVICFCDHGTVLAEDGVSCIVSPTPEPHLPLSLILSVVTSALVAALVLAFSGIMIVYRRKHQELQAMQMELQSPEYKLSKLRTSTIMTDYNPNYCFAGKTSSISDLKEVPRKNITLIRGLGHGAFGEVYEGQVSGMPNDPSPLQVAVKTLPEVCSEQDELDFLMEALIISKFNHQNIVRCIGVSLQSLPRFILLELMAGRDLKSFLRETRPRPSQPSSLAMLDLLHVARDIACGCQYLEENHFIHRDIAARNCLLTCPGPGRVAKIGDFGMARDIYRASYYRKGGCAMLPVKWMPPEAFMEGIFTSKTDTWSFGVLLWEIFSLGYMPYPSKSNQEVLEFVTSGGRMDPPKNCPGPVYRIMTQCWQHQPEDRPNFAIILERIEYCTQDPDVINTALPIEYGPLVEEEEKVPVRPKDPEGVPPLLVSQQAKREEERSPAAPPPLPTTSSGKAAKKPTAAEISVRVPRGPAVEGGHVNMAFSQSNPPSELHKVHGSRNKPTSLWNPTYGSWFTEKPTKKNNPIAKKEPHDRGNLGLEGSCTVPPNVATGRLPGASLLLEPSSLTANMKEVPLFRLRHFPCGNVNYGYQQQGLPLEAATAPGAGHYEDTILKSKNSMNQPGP
# [5] = target: Epidermal growth factor receptor (Homo sapiens, UniProt P00533); assay: Inhibition of EGFR (unknown origin) incubated for 1 hr and measured by mobility shift assay
# Chain of Epidermal growth factor receptor (P00533 whole entry): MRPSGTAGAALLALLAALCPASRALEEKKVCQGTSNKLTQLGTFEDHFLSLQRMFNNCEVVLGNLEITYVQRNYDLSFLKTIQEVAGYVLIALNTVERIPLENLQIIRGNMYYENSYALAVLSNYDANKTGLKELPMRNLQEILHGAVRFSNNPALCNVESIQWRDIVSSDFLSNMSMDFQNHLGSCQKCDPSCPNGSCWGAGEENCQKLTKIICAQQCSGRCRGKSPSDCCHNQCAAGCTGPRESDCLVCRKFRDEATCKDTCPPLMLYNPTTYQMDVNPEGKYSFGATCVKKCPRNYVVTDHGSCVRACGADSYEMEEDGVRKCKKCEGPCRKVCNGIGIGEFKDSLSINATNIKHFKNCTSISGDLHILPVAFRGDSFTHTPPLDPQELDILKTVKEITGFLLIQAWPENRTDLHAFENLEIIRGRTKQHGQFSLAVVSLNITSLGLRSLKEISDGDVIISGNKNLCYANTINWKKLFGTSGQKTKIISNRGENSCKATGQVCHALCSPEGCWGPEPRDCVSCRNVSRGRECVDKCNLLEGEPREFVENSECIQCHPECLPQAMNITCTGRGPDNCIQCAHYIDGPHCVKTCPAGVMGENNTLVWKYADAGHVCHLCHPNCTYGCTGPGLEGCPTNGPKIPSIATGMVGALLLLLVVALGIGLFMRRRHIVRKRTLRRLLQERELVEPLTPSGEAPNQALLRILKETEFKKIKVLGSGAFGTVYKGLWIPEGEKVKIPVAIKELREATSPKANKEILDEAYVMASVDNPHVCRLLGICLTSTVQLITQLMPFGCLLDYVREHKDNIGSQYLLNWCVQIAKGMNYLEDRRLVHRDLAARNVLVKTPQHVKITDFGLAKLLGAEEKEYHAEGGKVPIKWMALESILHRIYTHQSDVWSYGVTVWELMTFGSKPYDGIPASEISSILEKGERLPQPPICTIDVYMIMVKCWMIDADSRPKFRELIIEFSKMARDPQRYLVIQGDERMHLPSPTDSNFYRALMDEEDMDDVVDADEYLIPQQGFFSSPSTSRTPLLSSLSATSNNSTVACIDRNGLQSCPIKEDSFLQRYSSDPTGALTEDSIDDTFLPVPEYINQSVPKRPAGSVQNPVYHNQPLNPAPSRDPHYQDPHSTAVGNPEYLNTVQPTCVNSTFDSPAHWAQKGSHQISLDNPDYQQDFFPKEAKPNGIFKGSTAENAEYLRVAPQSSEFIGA
# HCT-116 = assay: Antiproliferative activity against human HCT-116 cells incubated for 72 hrs and measured by CCK-8 assay; assay type: functional, cell-based; conditions: HCT-116, 72 h
# NCI-H2228 [6] = assay: Induction of apoptosis in EML4-ALK-positive human NCI-H2228 cells assessed as apoptotic rate at 100 nM measured after 48 hrs by annexin V-FITC/propidium iodide staining based flow cytometry (reference value: 6.6%); assay type: functional
# NCI-H1581 = assay: Antiproliferative activity against human NCI-H1581 cells incubated for 72 hrs and measured by CCK-8 assay; assay type: functional, cell-based; conditions: NCI-H1581, 72 h
# PC-3 = assay: Antiproliferative activity against human PC-3 cells incubated for 72 hrs and measured by CCK-8 assay; assay type: functional, cell-based; conditions: PC-3, 72 h
# [7] = Cytotoxicity against human HELF cells incubated for 72 hrs and measured by CCK-8 assay; assay type: toxicity, cell-based
# MCF7 = assay: Antiproliferative activity against human MCF7 cells incubated for 72 hrs and measured by CCK-8 assay; assay type: functional, cell-based; conditions: MCF7, 72 h
# Chain of ALK tyrosine kinase receptor (Homo sapiens, UniProt Q9UM73, L1196M) (Q9UM73 19-1620 L1196M limits assumed): as the sequence (Q9UM73 19-1620 G1202R limits assumed) above, with L1178M, R1184G counted along it
SMILES,IC50 (KARPAS-299) [nM],IC50 (NCI-H2228 [1]) [nM],IC50 (NCI-H3122) [nM],IC50 (A549) [nM],further results
C/C=C/C(=O)Nc1ccccc1Nc1nc(Nc2ccc3c(NC(=O)CN(C)C)n[nH]c3c2)ncc1Cl,1250,2980,3690,5910,–
CNC(=O)c1ccccc1Nc1nc(Nc2ccc3c(NC(=O)CN4CCCC4)n[nH]c3c2)ncc1Cl,–,–,–,–,IC50 [2]: 4.4 nM; IC50 [3]: 3.6 nM; IC50 [4]: 2.1 nM
CCN1CCN(CC(=O)Nc2n[nH]c3cc(Nc4ncc(Cl)c(Nc5ccccc5S(=O)(=O)C(C)C)n4)ccc23)CC1,26,140,84,3970,–
CN(C)CC(=O)Nc1n[nH]c2cc(Nc3ncc(Cl)c(Nc4ccccc4NC(=O)C(C)(C)C)n3)ccc12,718,912,1570,1690,–
CC(C)S(=O)(=O)c1ccccc1Nc1nc(Nc2ccc3c(NC(=O)CN4CCN(CCO)CC4)n[nH]c3c2)ncc1Cl,46,250,157,7260,–
CC(=O)Nc1ccccc1Nc1nc(Nc2ccc3c(NC(=O)CN(C)C)n[nH]c3c2)ncc1Cl,359,770,74,1670,–
CNC(=O)c1ccccc1Nc1nc(Nc2ccc3c(NC(=O)CN4CCSCC4)n[nH]c3c2)ncc1Cl,76,322,137,1220,–
CN(C)CC(=O)Nc1n[nH]c2cc(Nc3ncc(Cl)c(Nc4ccccc4NS(=O)(=O)C4CC4)n3)ccc12,169,781,1530,1850,–
CNC(=O)c1ccccc1Nc1nc(Nc2ccc3c(NC(=O)CN4CCC(C)CC4)n[nH]c3c2)ncc1Cl,29,113,71,4810,–
CC(C)S(=O)(=O)c1ccccc1Nc1nc(Nc2ccc3c(NC(=O)CN4CCC(O)CC4)n[nH]c3c2)ncc1Cl,41,170,129,1840,–
CCN(CC)CC(=O)Nc1n[nH]c2cc(Nc3ncc(Cl)c(Nc4ccccc4C(=O)NC)n3)ccc12,17,62,85,2350,–
CNC(=O)c1ccccc1Nc1nc(Nc2ccc3c(NC(=O)CN4CCC(=O)CC4)n[nH]c3c2)ncc1Cl,63,569,187,2030,–
CNC(=O)c1ccccc1Nc1nc(Nc2ccc3c(NC(=O)CN4CCC(O)CC4)n[nH]c3c2)ncc1Cl,59,362,151,2000,–
CC(C)S(=O)(=O)c1ccccc1Nc1nc(Nc2ccc3c(NC(=O)CN4CCN(C)CC4)n[nH]c3c2)ncc1Cl,34,520,89,3580,–
CN(C)CC(=O)Nc1n[nH]c2cc(Nc3ncc(Cl)c(Nc4ccccc4NS(C)(=O)=O)n3)ccc12,132,339,245,3440,–
CC(C)S(=O)(=O)c1ccccc1Nc1nc(Nc2ccc3c(NC(=O)CN4CCCCC4)n[nH]c3c2)ncc1Cl,19,133,83,3260,–
CCN(CC)CC(=O)Nc1n[nH]c2cc(Nc3ncc(Cl)c(Nc4ccccc4S(=O)(=O)C(C)C)n3)ccc12,21,45,57,2560,IC50 [2]: 3.8 nM; IC50 [3]: 3.3 nM; IC50 [5]: > 1000 nM; IC50 [4]: 1.8 nM
C=CC(=O)Nc1ccccc1Nc1nc(Nc2ccc3c(NC(=O)CN(C)C)n[nH]c3c2)ncc1Cl,899,1820,3490,4490,–
CC(C)S(=O)(=O)c1ccccc1Nc1nc(Nc2ccc3c(NC(=O)CN4CCSCC4)n[nH]c3c2)ncc1Cl,36,126,124,1180,–
CC(C)S(=O)(=O)c1ccccc1Nc1nc(Nc2ccc3c(NC(=O)CN(C)C)n[nH]c3c2)ncc1Cl,–,–,–,–,IC50 [2]: 4.8 nM; IC50 [3]: 2.5 nM; IC50 [4]: 3.8 nM
CNC(=O)c1ccccc1Nc1nc(Nc2ccc3c(NC(=O)CN4CCCCC4)n[nH]c3c2)ncc1Cl,31,204,107,7210,–
CNC(=O)c1ccccc1Nc1nc(Nc2ccc3c(NC(=O)CN(C)C)n[nH]c3c2)ncc1Cl,12,51,21,2190,IC50 [2]: 6.6 nM; IC50 [3]: 3.7 nM; IC50 [5]: > 1000 nM; IC50 [4]: 2.5 nM
CNC(=O)c1ccccc1Nc1nc(Nc2ccc3c(NC(=O)CN4CCN(CCO)CC4)n[nH]c3c2)ncc1Cl,53,412,175,13600,–
CNC(=O)c1ccccc1Nc1nc(Nc2ccc3c(NC(=O)CN4CCOCC4)n[nH]c3c2)ncc1Cl,23,112,97,2230,–
CC1CCN(CC(=O)Nc2n[nH]c3cc(Nc4ncc(Cl)c(Nc5ccccc5S(=O)(=O)C(C)C)n4)ccc23)CC1,16,104,65,1470,–
CN(C)CC(=O)Nc1n[nH]c2cc(Nc3ncc(Cl)c(Nc4ccccc4NC(=O)C4CC4)n3)ccc12,558,823,836,1320,–
CC(C)S(=O)(=O)c1ccccc1Nc1nc(Nc2ccc3c(NC(=O)CN4CCOCC4)n[nH]c3c2)ncc1Cl,22,124,73,2390,–
CCN1CCN(CC(=O)Nc2n[nH]c3cc(Nc4ncc(Cl)c(Nc5ccccc5C(=O)NC)n4)ccc23)CC1,21,242,162,4470,–
Cc1cc(Nc2ncc(Cl)c(Nc3ccccc3S(=O)(=O)C(C)C)n2)c(OC(C)C)cc1C1CCNCC1 [CERITINIB],24,66,43,2770,IC50 (HCT-116): 1930 nM; Activity (NCI-H2228 [6]): 12.32%; IC50 (NCI-H1581): 2310 nM; IC50 (PC-3): 1020 nM; IC50 at 72 h [7]: > 20000 nM; IC50 (MCF7): 1870 nM
CN(C)CC(=O)Nc1n[nH]c2cc(Nc3ncc(Cl)c(Nc4ccccc4NC(=O)C(Cl)(Cl)Cl)n3)ccc12,1270,1450,2960,5780,–

# From ChEMBL document CHEMBL5108011, “Design, synthesis and antitumor evaluation of ATP dual-mimic 2,4-diarylaminopyrimidine and aminoindazole conjugates as potent anaplastic lymphoma kinase inhibitors” (Eur J Med Chem, 2022)
